From PubChem BioAssay AID256 (DTP/NCI, 2004)
Inconclusive results and toxic doses are left out.

System: CD2F1 mice, L1210 leukemia ip, survival T/C
Assay: NCI In Vivo Anticancer Drug Screen. Data for tumor model L1210 Leukemia (intraperitoneal) in CD2F1 (CDF1) mice
Settings: higher = longer survival
Summary of the method: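 Vehicle-treated tumor-bearing mice served as controls (C) for compound-treated mice (T). Reported figure is T divided by C.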

[1] = endpoint: mean survival time, dose: 100.0 mg/kg/injection, schedule: Q01DX009 (ip), vehicle: saline with Tween-80
[2] = endpoint: mean survival time, dose: 100.0 mg/kg/injection, schedule: Q04DX003 (ip), vehicle: saline with Tween-80
[3] = endpoint: mean survival time, dose: 200.0 mg/kg/injection, schedule: Q01DX009 (ip), vehicle: saline with Tween-80
[4] = endpoint: mean survival time, dose: 200.0 mg/kg/injection, schedule: Q04DX003 (ip), vehicle: saline with Tween-80
[5] = endpoint: mean survival time, dose: 400.0 mg/kg/injection, schedule: Q01DX009 (ip), vehicle: saline with Tween-80
[6] = endpoint: mean survival time, dose: 400.0 mg/kg/injection, schedule: Q04DX003 (ip), vehicle: saline with Tween-80
[7] = endpoint: mean survival time, dose: 50.0 mg/kg/injection, schedule: Q01DX009 (ip), vehicle: saline with Tween-80

How did the T/C [1] turn out when `O=C(O)/C(=C/c1ccc(O)cc1)c1ccccc1` was run?
The T/C was 88 % of control.

What about the T/C [2] of the same molecule?
Its T/C is 101 % of control.

What about the T/C [3] of the same molecule?
The T/C was 93 % of control.

And the T/C [4]?
The T/C was 91 % of control.

What about the T/C [5] of the same molecule?
The T/C was 87 % of control.

And the T/C [6]?
Its T/C is 96 % of control.

Which T/C (endpoint: median survival time, dose: 50.0 mg/kg/injection, schedule: Q01DX005 (ip), vehicle: Klucel (hydroxypropylcellulose) (HPC)) does the source give for `CN(C)CN1C(=O)S/C(=C2\C(=O)N(CN(C)C)c3ccccc32)C1=O` here?
The T/C was 100 % of control.

What about the T/C (endpoint: median survival time, dose: 100.0 mg/kg/injection, schedule: Q01DX005 (ip), vehicle: Klucel (hydroxypropylcellulose) (HPC)) of the same molecule?
The T/C was 98 % of control.

And the T/C (endpoint: median survival time, dose: 200.0 mg/kg/injection, schedule: Q01DX005 (ip), vehicle: Klucel (hydroxypropylcellulose) (HPC))?
Its T/C is 101 % of control.

What does the source list for `CCCCn1cnc2c(=S)nc(N)[nH]c21`?
T/C (endpoint: mean survival time, dose: 25.0 mg/kg/injection, schedule: Q01DX009 (ip), vehicle: saline with Tween-80): 162 % of control; T/C [7]: 171 % of control; T/C (endpoint: mean survival time, dose: 50.0 mg/kg/injection, schedule: Q04DX003 (ip), vehicle: saline with Tween-80): 157 % of control

What does the source list for `N#CC1(C#N)OC(C#N)(C#N)c2ccccc21`?
T/C (endpoint: mean survival time, dose: 6.25 mg/kg/injection, schedule: Q01DX001 (ip), vehicle: saline with Tween-80): 102 % of control; T/C (endpoint: mean survival time, dose: 12.5 mg/kg/injection, schedule: Q01DX001 (ip), vehicle: saline with Tween-80): 98 % of control; T/C (endpoint: mean survival time, dose: 25.0 mg/kg/injection, schedule: Q01DX001 (ip), vehicle: saline with Tween-80): 98 % of control

Which T/C (endpoint: mean survival time, dose: 100.0 mg/kg/injection, schedule: Q01DX009 (ip), vehicle: saline) does the source give for `CCOC(=O)NCCCNC(=O)OCC` here?
The T/C was 104 % of control.

And the T/C (endpoint: mean survival time, dose: 200.0 mg/kg/injection, schedule: Q01DX009 (ip), vehicle: saline)?
The T/C was 95 % of control.

What about the T/C (endpoint: mean survival time, dose: 400.0 mg/kg/injection, schedule: Q01DX009 (ip), vehicle: saline) of the same molecule?
Its T/C is 93 % of control.

Which results are given for `O=C(Nc1ccc(CCO)cc1)Nc1ccc(F)c([N+](=O)[O-])c1`?
T/C (endpoint: mean survival time, dose: 100.0 mg/kg/injection, schedule: Q01DX001 (ip), vehicle: saline with Tween-80): 98 % of control; T/C [1]: 93 % of control; T/C [2]: 101 % of control; T/C (endpoint: mean survival time, dose: 200.0 mg/kg/injection, schedule: Q01DX001 (ip), vehicle: saline with Tween-80): 96 % of control; T/C [3]: 94 % of control; T/C [4]: 98 % of control; T/C (endpoint: mean survival time, dose: 400.0 mg/kg/injection, schedule: Q01DX001 (ip), vehicle: saline with Tween-80): 92 % of control; T/C [5]: 93 % of control; T/C [6]: 102 % of control

What does the source list for `CC(=O)N(C)c1ccc(NC(=O)Nc2ccc(C)c(C)c2)cc1`?
T/C [7]: 91 % of control; T/C [1]: 91 % of control; T/C [3]: 88 % of control

How did the T/C (endpoint: mean survival time, dose: 100.0 mg/kg/injection, schedule: Q01DX001 (ip), vehicle: saline) turn out when `BrC/C(=N\N1CCCCCC1)c1ccc(Br)cc1` was run?
The T/C was 94 % of control.

And the T/C (endpoint: mean survival time, dose: 200.0 mg/kg/injection, schedule: Q01DX001 (ip), vehicle: saline)?
Its T/C is 92 % of control.

And the T/C (endpoint: mean survival time, dose: 400.0 mg/kg/injection, schedule: Q01DX001 (ip), vehicle: saline)?
Its T/C is 92 % of control.
